Source: patent US9399759B2, “Method for producing neurospheres” (Keio University, priority 2008, dated 2016)

Columns and labels:
[1] = system: dedifferentiation factor-introduced fibroblasts; assay: Effect of cell death inhibitors on induction of differentiation into mouse neurospheres (Example 2); type: cell-based; details: Day 20 of the culture, FIG. 4A
Method: (§1) The dedifferentiation factor-introduced fibroblasts cultured as above were dissociated by washing with 0.25% trypsin EDTA, resuspended in 10 ml of DMEM/F-12 serum-free medium (1:1, Invitrogen; containing 0.6% D-glucose, 5 mM HEPES, 3 mM NaHCO3, 2 mM glutamine, 25 ug/ml insulin, 100 ug/ml transferrin, 20 nM progesterone, 60 uM putrescine and 30 nM sodium selenate) supplemented with LIF (recombinant human LIF; Chemi-Con, 100 U/ml) and FGF (PeproTech, 20 ng/ml) at the density of 50 cells/ul, seeded in bacterial plastic culture dishes, and cultured in suspension under the conditions of 37° C. and 5% CO2 with exchanging the culture media every 14 days. On Day 3 and Day 20 during the suspension culture, the states of the cells were observed.
In order to examine the improvement of the efficiency for the induction of differentiation into neurospheres by cell death inhibitors of N-acetyl-L-cysteine (NAC) and 8-chlorophenylthio (pCPT-cAMP), a membrane-permeable analog of cAMP, media supplemented with either or both of 1 mM of NAC(Sigma) and 100 uM of pCPT-cAMP (Sigma) were used in the suspension culture as described in Example 1. Other procedures were followed in the same way as described in Example 1, and numbers of neurospheres on Day 20 of the culture were counted.

human fibroblasts = assay: Effect of LIF, cAMP and Y27632 on number of human neurospheres formed (Example 2); type: cell-based; details: media with cAMP in place of or in addition to LIF, or cAMP, FIG. 4B
Method: as §1
In the case of human fibroblasts, the culture media were supplemented with cAMP in place of or in addition to LIF or with cAMP, LIF and a ROCK inhibitor Y27632, and the number of the neurospheres obtained from 250000 cells was counted.

| Molecule | number of neurospheres as compared to the Control Group ([1]; only NAC added, 1 mM) | effect on neurosphere formation (number of neurospheres obtained from 250000 cells) (human fibroblasts) | increase of number of neurospheres per 10 ml of the medium as compared to Control Group ([1]; only pCPT-cAMP added, 100 uM, adult mouse fibroblasts) |
| --- | --- | --- | --- |
| CC(=O)N[C@@H](CS)C(=O)O [NAC, N-acetyl-L-cysteine] | no difference was observed | – | – |
| C[C@@H](N)[C@H]1CC[C@H](C(=O)Nc2ccncc2)CC1 [Y27632] | – | no effect | – |
| Nc1ncnc2c1nc(Sc1ccc(Cl)cc1)n2[C@@H]1O[C@@H]2COP(=O)([O-])O[C@H]2[C@H]1O.[Na+] [pCPT-cAMP, 8-chlorophenylthio (pCPT-cAMP)] | – | additive effect | over 100 fold |
| LIF: recombinant human LIF; Chemi-Con; growth factor added to the medium | – | additive effect | – |
